From ChEMBL document CHEMBL1201862, “PubChem BioAssay data set” (2004)
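Values below derive from 48-hour exposures of cells grown in 96-well plates, with endpoints linearly interpolated between the two concentrations bracketing the appropriate inhibition level. At the GI50, growth is halved.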 The source made the active and inactive calls. Cut-off read from the data, not from the text of the source: active = GI50 up to about 1.1 µM and inactive = higher. Square brackets hold non-standard residues; d marks the D form. Peptide text beside a SMILES is read from it. * marks the point of attachment. Tyr(3-Br) = N[C@@H](Cc1ccc(O)c(Br)c1)C(=O)O; Boc = CC(C)(C)OC(=O)*

Assays:
Assay in all cases: growth of human tumour cells (NCI), 48 h
[1] = system: HL-60
[2] = system: MDA-MB-435
[3] = system: ACHN
[4] = system: OVCAR-3
[5] = system: OVCAR-4
[6] = system: K562
[7] = system: HOP-92
[8] = system: MDA-N
[9] = system: UO-31
[10] = system: 786-0
[11] = system: NCI-H460
[12] = system: KM12
[13] = system: SN12C
[14] = system: SK-MEL-5
[15] = system: MCF7
[16] = system: OVCAR-5
[17] = system: BT-549
[18] = system: SK-MEL-28
[19] = system: NCI/ADR-RES
[20] = system: SF-295

SMILES | GI50 [1] | GI50 [2] | GI50 [3] | GI50 [4] | GI50 [5] | GI50 [6] | GI50 [7] | GI50 [8] | GI50 [9] | GI50 [10] | GI50 [11] | GI50 [12] | GI50 [13] | GI50 [14] | GI50 [15] | GI50 [16] | GI50 [17] | GI50 [18] | GI50 [19] | GI50 [20]
O=[N+]([O-])c1ccc2c(Nc3ccccc3-c3ccccc3Nc3c4ccccc4nc4cc([N+](=O)[O-])ccc34)c3ccccc3nc2c1 | 2.68 µM (inactive) | 1.34 µM (inactive) | 3.17 µM (inactive) | 3.18 µM (inactive) | 10 µM (inactive) | 1.57 µM (inactive) | 3.44 µM (inactive) | 1.17 µM (inactive) | 3.26 µM (inactive) | 1.93 µM (inactive) | 2.5 µM (inactive) | 2.86 µM (inactive) | 2.54 µM (inactive) | 1.99 µM (inactive) | 4.18 µM (inactive) | 25.9 µM (inactive) | 1.16 µM (inactive) | 24.2 µM (inactive) | 7.41 µM (inactive) | 5.4 µM (inactive)
[O-][s+]1c2c(Cc3ccccc3)c(Cc3ccccc3)c1CCc1cccc(c1)CC2 | 16.9 µM (inactive) | 12.9 µM (inactive) | 16.7 µM (inactive) | 11.1 µM (inactive) | 5.02 µM (inactive) | 11.2 µM (inactive) | 13.4 µM (inactive) | 14.1 µM (inactive) | 12.9 µM (inactive) | 15.2 µM (inactive) | 13.4 µM (inactive) | 12.2 µM (inactive) | 16.2 µM (inactive) | 14.9 µM (inactive) | 11.1 µM (inactive) | 15.3 µM (inactive) | 13.8 µM (inactive) | 20.7 µM (inactive) | 14.4 µM (inactive) | 13.2 µM (inactive)
CC(=O)NC1(c2cc3ccccc3s2)CCCCCC1 | 23.4 µM (inactive) | 35.5 µM (inactive) | 43.9 µM (inactive) | 21.6 µM (inactive) | 38.5 µM (inactive) | 23.8 µM (inactive) | 59.3 µM (inactive) | 48.4 µM (inactive) | 37.2 µM (inactive) | 34.7 µM (inactive) | 36.6 µM (inactive) | 41.8 µM (inactive) | 42.3 µM (inactive) | 27.1 µM (inactive) | 37.2 µM (inactive) | 36.7 µM (inactive) | 58.9 µM (inactive) | 54 µM (inactive) | 38.3 µM (inactive) | 33.7 µM (inactive)
Cc1cc2c(cc1Cl)Sc1nnc(C)n1S2(=O)=O | 6.78 µM (inactive) | 13 µM (inactive) | 11.9 µM (inactive) | 12.6 µM (inactive) | 12.5 µM (inactive) | 13.8 µM (inactive) | 2.84 µM (inactive) | 13.8 µM (inactive) | 10.6 µM (inactive) | 16.1 µM (inactive) | 23.7 µM (inactive) | 15.5 µM (inactive) | 14.8 µM (inactive) | 13.6 µM (inactive) | 4.44 µM (inactive) | 29.2 µM (inactive) | 14.1 µM (inactive) | 16.9 µM (inactive) | 27 µM (inactive) | 15.7 µM (inactive)
c1ccc(-c2nc3ccccc3n3nnnc23)cc1 | > 100 µM (inactive) | > 100 µM (inactive) | > 100 µM (inactive) | > 100 µM (inactive) | > 100 µM (inactive) | > 100 µM (inactive) | > 100 µM (inactive) | > 100 µM (inactive) | 0.424 µM (active) | 57.1 µM (inactive) | > 100 µM (inactive) | > 100 µM (inactive) | > 100 µM (inactive) | > 100 µM (inactive) | > 100 µM (inactive) | > 100 µM (inactive) | > 100 µM (inactive) | > 100 µM (inactive) | > 100 µM (inactive) | 
COC(=O)NC(=O)NC(Cc1ccccc1)NC(=O)OCc1ccccc1 (stereo not drawn) | > 100 µM (inactive) | > 100 µM (inactive) | > 100 µM (inactive) | > 100 µM (inactive) | > 100 µM (inactive) | > 100 µM (inactive) | 18.1 µM (inactive) | > 100 µM (inactive) | 30.9 µM (inactive) | 37.8 µM (inactive) | > 100 µM (inactive) | > 100 µM (inactive) | > 100 µM (inactive) | > 100 µM (inactive) | > 100 µM (inactive) | > 100 µM (inactive) | 31.1 µM (inactive) | > 100 µM (inactive) | > 100 µM (inactive) | 35.5 µM (inactive)
O=C(O)c1ccc(Nc2nc3ccccc3nc2C(=O)O)cc1 | > 10 µM (inactive) | > 100 µM (inactive) | > 100 µM (inactive) | > 100 µM (inactive) | > 100 µM (inactive) | > 100 µM (inactive) | > 100 µM (inactive) | > 100 µM (inactive) | > 100 µM (inactive) | > 100 µM (inactive) | > 100 µM (inactive) | > 100 µM (inactive) | > 100 µM (inactive) | > 100 µM (inactive) | > 100 µM (inactive) | > 100 µM (inactive) | > 100 µM (inactive) | > 100 µM (inactive) | > 100 µM (inactive) | > 100 µM (inactive)
CCOC(=O)c1c(C)n(-c2ccc(Cl)cc2)c2c1cc(O)c1[nH]c3c(c12)CCCC3 | 34.6 µM (inactive) | 24.9 µM (inactive) | 46.3 µM (inactive) | 54.2 µM (inactive) | 45.8 µM (inactive) | 41.3 µM (inactive) | 38.5 µM (inactive) | 35.7 µM (inactive) | > 100 µM (inactive) | > 100 µM (inactive) | 47.5 µM (inactive) | 29 µM (inactive) | 65.2 µM (inactive) | 21.6 µM (inactive) | 34.7 µM (inactive) | > 100 µM (inactive) | 52.7 µM (inactive) | 33.2 µM (inactive) | > 100 µM (inactive) | 52.8 µM (inactive)
Sc1nnc(-c2ccccc2Nc2ccccc2-c2nnc(S)n2-c2ccccc2)n1-c1ccccc1 | 22.8 µM (inactive) | 22.9 µM (inactive) | 38.3 µM (inactive) | 56.6 µM (inactive) | 40.4 µM (inactive) | 52.7 µM (inactive) | 17.8 µM (inactive) | 32.1 µM (inactive) | 44.6 µM (inactive) | 45 µM (inactive) | 37.1 µM (inactive) | 51.6 µM (inactive) | 26.5 µM (inactive) | 23.7 µM (inactive) | 37.2 µM (inactive) | 47.9 µM (inactive) | 28.1 µM (inactive) | 19.5 µM (inactive) | 84.1 µM (inactive) | 43.1 µM (inactive)
CCCC(=O)[O-].[Na+] [SODIUM BUTYRATE] | 721 µM (inactive) | 3470 µM (inactive) | 4470 µM (inactive) | 9910 µM (inactive) | 18700 µM (inactive) | 1000 µM (inactive) | 5680 µM (inactive) | 3580 µM (inactive) | 2520 µM (inactive) | 10600 µM (inactive) | 2390 µM (inactive) | 9440 µM (inactive) | 5310 µM (inactive) | 635 µM (inactive) | 1000 µM (inactive) | 7980 µM (inactive) | 8040 µM (inactive) | 4170 µM (inactive) | 843 µM (inactive) | 7660 µM (inactive)
O=[N+]([O-])c1ccc(O)c(/C=N/c2nc(-c3ccccc3)cs2)c1 | 34.2 µM (inactive) | 35.5 µM (inactive) | 31.4 µM (inactive) | 35.2 µM (inactive) | 58.3 µM (inactive) | 2.4 µM (inactive) | 22.9 µM (inactive) | 27.5 µM (inactive) | 26.4 µM (inactive) | 34.2 µM (inactive) | 38.1 µM (inactive) | 37.5 µM (inactive) | 34.8 µM (inactive) | 13.2 µM (inactive) | 26.8 µM (inactive) | 31.6 µM (inactive) | 17.1 µM (inactive) | 31.9 µM (inactive) | 29.7 µM (inactive) | 33.1 µM (inactive)
Nc1nc2c(c(-c3cccc(Cl)c3)n1)COC/C2=C\c1cccc(Cl)c1 | > 100 µM (inactive) | > 100 µM (inactive) | > 100 µM (inactive) | > 100 µM (inactive) | > 100 µM (inactive) | > 100 µM (inactive) | > 100 µM (inactive) | > 100 µM (inactive) | 25 µM (inactive) | 15.6 µM (inactive) | > 100 µM (inactive) | 85.1 µM (inactive) | > 100 µM (inactive) | > 100 µM (inactive) | > 100 µM (inactive) | > 100 µM (inactive) | > 100 µM (inactive) | > 100 µM (inactive) | > 100 µM (inactive) | > 100 µM (inactive)
COC(=O)[C@H](Cc1ccc(O)c(Br)c1)NC(=O)[C@H](Cc1ccc(O)cc1)NC(=O)OC(C)(C)C (Boc-Tyr-[Tyr(3-Br)]-OMe) | 32.4 µM (inactive) | 23 µM (inactive) | 37.3 µM (inactive) | 20.7 µM (inactive) | 29.8 µM (inactive) | > 100 µM (inactive) | 28.6 µM (inactive) | > 100 µM (inactive) | 29 µM (inactive) | 41.3 µM (inactive) | 19.2 µM (inactive) | 40.6 µM (inactive) | 78.5 µM (inactive) |  | 31.3 µM (inactive) | > 100 µM (inactive) | 35.2 µM (inactive) | 34.6 µM (inactive) | > 100 µM (inactive) | > 100 µM (inactive)
COc1cccc(NC(=O)CC(=O)N2N=C(C)C(/N=N/c3ccc(S(=O)(=O)CCOS(=O)(=O)O)cc3)C2=O)c1 (stereo not drawn) | 1.66 µM (inactive) | 2.65 µM (inactive) | 3.99 µM (inactive) | 4.21 µM (inactive) | 1.58 µM (inactive) | 2.18 µM (inactive) | 2.21 µM (inactive) | 3.69 µM (inactive) | 12.1 µM (inactive) | 2.74 µM (inactive) | 4.49 µM (inactive) | 11.6 µM (inactive) | 5.05 µM (inactive) | 3.52 µM (inactive) | 2.09 µM (inactive) | 29.3 µM (inactive) | 3.35 µM (inactive) | 4.09 µM (inactive) | 4.2 µM (inactive) | 15.3 µM (inactive)
